Assays:
A-549 cells [1] = experiment: Cell cycle distribution by flow cytometry; format: cell-based, human; settings: A-549, 24 h; for cells accumulated in the G2/M phase: concentration per compound as in Tables 6 and 7, control 14%
Procedure, shortened: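 A-549 cells were harvested, fixed in cold 70% ethanol (30 min, −20 °C), then stained with 50 µg/mL propidium iodide plus 100 µg/mL RNase A in PBS for 20 min at room temperature in the dark. Flow cytometry used 488 nm excitation and 620 nm emission, giving the percentage of cells in G2/M.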

A-549 cells [2] = experiment: Effect on the cellular microtubule network (immunofluorescence); format: cell-based, human
Procedure: The effect on the cellular microtubule network of CA-4 derivatives was studied for compounds 1, 3.7 (L-Thr-OMe), 3.8 (L-Tyr-OMe), 4.2 (L-Val) and 4.3 (L-Leu), which were those accumulating more cells in the G2/M phase. Thus, A-549 cells were incubated for 24 h in the presence of the above compounds and CA-4 at the concentrations indicated in Figure 4.
The effect of some derivatives on the cellular microtubule network were also studied on A-549 cells. The selected compounds were 7.1 (Fmoc-Gly) (0.5 μM), 8.1 (Gly) (2 μM), 8.2 (L-Ala) (3 μM) and 10.1 (D-Val) (40 μM), which were those exerting a higher effect on the cell cycle.
For immunofluorescence microscopy of the microtubule network, 10^6 cells were plated on cover glass and incubated with the different drugs. Cells were then fixed in 3.7% formaldehyde (in PBS pH 7.4) for 20 min at room temperature and permeabilized with PBS-Triton X-100 0.5% for 10 min at room temperature. Direct immunostaining was carried out for 2 h at room temperature with a primary FITC-conjugated anti-α-tubulin antibody (dilution 1:400 in PBS-BSA 1% from a 1 mg/mL solution; monoclonal antibody, clone DM1A; Sigma-Aldrich, Darmstadt, Germany.). Next, cells were incubated for 45 min at room temperature in darkness with secondary Alexa Fluor 488-conjugated antibodies (dilution 1:200 each from 1.5 mg/mL; Molecular Probe, France). Then, cells were washed in PBS and cover glasses were mounted with a drop of ProLong® antifade solution (Invitrogen). The cytoskeleton was imaged by a confocal laser scanning microscope (CLSM) Leica SP5 with a Leica inverted microscope, equipped with a Plan-Apochromat 63× oil immersion objective (NA = 1.4). Each image was recorded with the CLSM’s spectral mode selecting specific domains of the emission spectrum. The FITC fluorophore was excited at 488 nm with an argon laser, and its fluorescence emission was collected between 496 nm and 535 nm.

[3] = system: MCF-7 (breast adenocarcinoma); experiment: Inhibition of cell proliferation (MTT), MCF-7; format: cell-based, human; settings: Homo sapiens, 48 h of treatment (footnote), average ±SD of three experiments
[4] = system: A-549 (human pulmonary adenocarcinoma); experiment: Inhibition of cell proliferation (MTT), A-549; format: cell-based; settings: 48 h of treatment (footnote), average ±SD of three experiments
Procedure, shortened: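 Antiproliferative activity against A-549 human pulmonary adenocarcinoma cells was measured by MTT assay. Cells were seeded at 25,000/mL in 96-well plates, cultured 24 h, then exposed to compounds at various concentrations. MTT (20 µL, 5 mg·mL^−1) was added for 2 h at 37 °C, formazan dissolved in 200 µL DMSO, and absorbance read at 540 nm. IC50 values came graphically from three independent experiments.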

[5] = system: HT-29 (human colon adenocarcinoma); experiment: Inhibition of cell proliferation (MTT), HT-29; format: cell-based; settings: Homo sapiens, 48 h of treatment (footnote), average ±SD of three experiments
[6] = system: HEK-293 (human embryonic kidney cells); experiment: Inhibition of cell proliferation (MTT), nontumor HEK-293; format: cell-based; settings: Homo sapiens, 48 h of treatment (footnote), average ±SD of three experiments
purified tubulin = experiment: Critical concentration (CrC) for the assembly of purified tubulin in GAB; format: biochemical; settings: compound 27.5 μM, tubulin 25 μM, glycerol (GAB) and GTP assembly buffer; control 7.9 ± 1.2
Procedure: The effect on the self-assembly of tubulin was determined by measuring the critical concentration (CrC).

tubulin = experiment: In vitro tubulin polymerization by turbidimetry (It50); format: biochemical; settings: turbidimetry at 350 nm, 37 °C; control 16.6 ± 1.0
Procedure: Figure 3 also includes polymerization curves in the presence of CA-4, AmCA-4 and paclitaxel. This test was also performed using paclitaxel, a microtubule stabilizing agent, as a control for the complete formation of microtubules (see Figure 3).

[7] = Homo sapiens, A549, 48 h, Table 1

Compound	cells accumulated in the G2/M phase (A-549 cells [1])	Effect on the microtubule network (A-549 cells [2]; A-549, 24 h, 50 μM)	IC50 ([3]; MCF7, 48 h, Table 1)	IC50 [4, 7]	IC50 ([5]; HT-29, 48 h, Table 1)	IC50 ([6]; HEK293, 48 h, Table 1)	CrC (critical concentration) (purified tubulin)	G0/G1 (A-549 cells [1]; 75 μM)	G2/M (A-549 cells [1]; 75 μM)	S (A-549 cells [1]; 75 μM)	also measured
CCOC(=O)COc1cc(/C=C\c2cc(OC)c(OC)c(OC)c2)ccc1OC [Compound 1, Ethyl (Z)-2-(2-methoxy-5-(3,4,5-trimethoxystyryl)phenoxy)acetate]	50–70%	produce disorganization in the mitotic spindle	8 ± 4 µM	< 10 µM	7 ± 4 µM	3.6 ± 0.5 µM					G0/G1 (A-549 cells [1]; 50 μM): 23 ± 5%; G2/M (A-549 cells [1]; 50 μM): 55 ± 8%; S (A-549 cells [1]; 50 μM): 22 ± 4%; IC50 ([4]; Table 1): 9 ± 1 µM
COc1ccc(/C=C\c2cc(OC)c(OC)c(OC)c2)cc1OCC(=O)O [Compound 2, (Z)-2-(2-Methoxy-5-(3,4,5-trimethoxystyryl)phenoxy)acetic acid]				38 ± 5 µM			12.0 ± 0.7 µM				melting point: 109 to 111 °C; IC50 ([3]; MCF7, Table 1): 11 ± 5 µM; IC50 ([5]; HT-29, Table 1): 33 ± 6 µM; IC50 ([6]; HEK293, Table 1): 12 ± 5 µM
COC(=O)[C@@H](NC(=O)COc1cc(/C=C\c2cc(OC)c(OC)c(OC)c2)ccc1OC)C(C)O (some centres unmarked) [Compound 3.7]	50–70%		12 ± 4 µM	19 ± 1 µM	18 ± 7 µM	14 ± 2 µM	10 ± 3 µM	25 ± 5%	57 ± 6%	18 ± 1%	Effect on the microtubule network (A-549 cells [2]; A-549, 24 h, 75 μM): produce disorganization in the mitotic spindle
COC(=O)[C@H](Cc1ccc(O)cc1)NC(=O)COc1cc(/C=C\c2cc(OC)c(OC)c(OC)c2)ccc1OC [Compound 3.8]	50–70%		12 ± 4 µM	18 ± 1 µM	16 ± 5 µM	10 ± 2 µM		17 ± 2%	65 ± 1%	18 ± 1%	Effect on the microtubule network (A-549 cells [2]; A-549, 24 h, 75 μM): produce disorganization in the mitotic spindle
COc1ccc(/C=C\c2cc(OC)c(OC)c(OC)c2)cc1OCC(=O)N[C@@H](CC(C)C)C(=O)O [Compound 4.3]	50–70%	produce disorganization in the mitotic spindle	16 ± 6 µM	14 ± 2 µM	15 ± 5 µM	9 ± 2 µM	8 ± 3 µM	22 ± 6%	63 ± 5%	15 ± 2%	
COc1ccc(/C=C\c2cc(OC)c(OC)c(OC)c2)cc1OCC(=O)N[C@@H](Cc1ccccc1)C(=O)O [Compound 4.4]		produce disorganization in the mitotic spindle		100 ± 20 µM			11.4 ± 0.7 µM				IC50 ([3]; MCF7, Table 1): 45 ± 4 µM; IC50 ([5]; HT-29, Table 1): 54 ± 9 µM; IC50 ([6]; HEK293, Table 1): 47 ± 3 µM
COc1ccc(/C=C\c2cc(OC)c(OC)c(OC)c2)cc1NC(=O)[C@H](N)C(C)C [Compound 10.1]							12.8 ± 0.3 µM				G0/G1 (A-549 cells [1]; 40 µM): 26 ± 2%; G2/M (A-549 cells [1]; 40 µM): 60 ± 1%; S (A-549 cells [1]; 40 µM): 14 ± 1%; It50 (time required to reach 50% of the polymerization) (tubulin): 17.1 ± 1.3 min; Effect on the microtubule network (A-549 cells [2]; A-549, 0.5 μM): much less active; Effect on the microtubule network (A-549 cells [2]; A-549, 40 μM): almost total depolymerization of the microtubule network; IC50 ([3]; MCF7, 48 h, Table 2): 4.7 ± 0.7 µM; IC50 ([4]; Homo sapiens, A549, 48 h, Table 2): 9.9 ± 1.3 µM; IC50 ([5]; HT-29, 48 h, Table 2): 4.8 ± 0.6 µM; IC50 ([6]; HEK293, 48 h, Table 2): 2.4 ± 0.3 µM

— publication PMC7037732, “Synthesis of Combretastatin A-4 and 3′-Aminocombretastatin A-4 derivatives with Aminoacid Containing Pendants and Study of their Interaction with Tubulin and as Downregulators of the VEGF, hTERT and c-Myc Gene Expression” (Molecules, 2020)
